The text below walks through data of patent publication US9328085B2, “Heterocyclic compounds and expansion agents for hematopoietic stem cells” (NISSAN CHEMICAL INDUSTRIES, LTD., priority 2009, dated 2016).

One assay deals with CD34^+ cells. Kind of assay: Expansion of CD34+ cells using human cord blood-derived CD34+ cells (Assay Example 1). The following applies: 100 ng/mL SCF, 7 days, based on the number of CD34^+ cells in the absence of compound. The class given is cell-based. As for the experimental part: (§1) Human cord blood-derived CD34^+ cells were purchased from Lonza and plated on a 24-well plate (Corning) (10000 cells/1 mL/well). As the culture medium, StemSpan SFEM (StemCell Technologies) containing 100 ng/mL SCF (Wako Pure Chemical Industries) was used, and one of Compounds No. 1 to 72 dissolved in dimethyl sulfoxide was added in an amount of 0.1% (v/v) to a final concentration of 1 or 3 μg/mL. As a positive control, TPO (PeproTech) was used at a final concentration of 10 ng/mL.
(§2) After the cells were incubated in liquid culture at 37° C. for 7 days in a CO2 incubator (5% CO2), the number of viable cells was counted by trypan blue assay. The number of CD34^+CD38^− cells was calculated as follows. After the incubation, the cells in the liquid culture was stained with a CD34 antibody (APC, Becton, Dickinson and Company) and a CD38 antibody (PE, Becton, Dickinson and Company), then washed with PBS(−) containing 2% (v/v) FBS and stained with propidium iodide (Sigma-Aldrich Japan) added to a final concentration of 5 μg/mL. The stained cells were analyzed with a BD FACSCANTO™ II flow cytometer (Becton, Dickinson and Company) to determined the proportions of CD34^+ cells and CD34^+CD38^− cells, which was multiplied by the number of viable cells to calculate the numbers of CD34^+ cells and CD34^+CD38^− cells.
(§3) The expansion efficiencies in the presence of 1 or 3 μg/mL of compounds based on the number of CD34^+ cells in the absence of them are shown in Tables 3-1 and 3-2 on a scale of A for expansion efficiencies of 6 or greater, B for expansion efficiencies of at least 4 and less than 6, and C for expansion efficiencies of at least 2 and less than 4. The expansion efficiencies in the presence of 1 or 3 μg/mL of compounds based on the number of CD34^+CD38^− cells in the absence of them are shown in Tables 4-1 and 4-2 on a scale of A for expansion efficiencies of 10 or greater, B for expansion efficiencies of at least 5 and less than 10, and C for expansion efficiencies of at least 3 and less than 5. Further, in Table 3, the compounds with an expansion efficiency twice or more greater than that of TPO are marked with O.

The test system of another assay is CD34^+CD38^− cells. Kind of assay: Expansion of CD34+CD38- cells using human cord blood-derived CD34+ cells (Assay Example 1). It counts as cell-based. As to conditions: for Comparison with TPO: CD34^+CD38^− cells; for Expansion efficiency (CD34^+CD38^− cells): 100 ng/mL SCF, 7 days, based on the number of CD34^+CD38^− cells in the absence of compound. How it is done: as §1, §2, §3

Where [1] appears, read: 3 μg/mL compound vs TPO 10 ng/mL.
Where [2] appears, read: 1 μg/mL compound vs TPO 10 ng/mL.

As for `CC(=NNC(=O)c1ccc(C(=O)NCc2ccc(C(=O)NCCOCCO)cc2)s1)c1csc(-c2ccc(Cl)cc2)c1O` [compound 63], in the assay on CD34^+ cells (3 μg/mL compound), the “Expansion efficiency (CD34^+ cells)” value is listed as “A (A for expansion efficiencies of 6 or greater)”. In the assay on CD34^+CD38^− cells (setting [1]), the “Comparison with TPO” value was “∘”. In addition, the “Expansion efficiency (CD34^+CD38^− cells)” value with CD34^+CD38^− cells (3 μg/mL compound) is on record as “A (A for expansion efficiencies of 10 or greater)”.

For the molecule `CC(=NNC(=O)c1ccc(C(=O)NCc2ccc(C(=O)NCCOCCO)cc2)s1)c1csc(-c2ccc(OC(F)(F)F)cc2)c1O` [compound 64], the “Expansion efficiency (CD34^+ cells)” value with CD34^+ cells (1 μg/mL compound) is “A (A for expansion efficiencies of 6 or greater)”. Moreover, in the assay on CD34^+CD38^− cells (setting [2]), the “Comparison with TPO” value is given as “∘”. For the same molecule, in the assay on CD34^+CD38^− cells (1 μg/mL compound), the “Expansion efficiency (CD34^+CD38^− cells)” value is on record as “A (A for expansion efficiencies of 10 or greater)”.

Take `COc1ccc(-c2scc(C(C)=NNC(=O)c3ccc(C(=O)NCc4ccc(C(=O)NCCOCCO)cc4)s3)c2O)cc1` [compound 65]: the “Expansion efficiency (CD34^+ cells)” value in the assay with CD34^+ cells (3 μg/mL compound) was “C (C for expansion efficiencies of at least 2 and less than 4)”. For the same molecule, in the assay with CD34^+CD38^− cells (3 μg/mL compound), the “Expansion efficiency (CD34^+CD38^− cells)” value is “B (B for expansion efficiencies of at least 5 and less than 10)”.

Regarding `CC(=NNC(=O)c1ccc(C(=O)NCc2ccc(CC(N)=O)cc2)s1)c1csc(-c2ccc(Cl)c(Cl)c2)c1O` [compound 66], in the assay on CD34^+ cells (3 μg/mL compound), the “Expansion efficiency (CD34^+ cells)” value is “C (C for expansion efficiencies of at least 2 and less than 4)”. The “Expansion efficiency (CD34^+CD38^− cells)” value in the assay on CD34^+CD38^− cells (3 μg/mL compound) is “A (A for expansion efficiencies of 10 or greater)”.

On to `CC(=NNC(=O)c1ccc(C(=O)NCc2ccc(CC(N)=O)cc2)s1)c1csc(-c2ccc(C(C)(C)C)cc2)c1O` [compound 67], for which the “Expansion efficiency (CD34^+ cells)” value in the assay on CD34^+ cells (1 μg/mL compound) was “B (B for expansion efficiencies of at least 4 and less than 6)”. Also, the “Comparison with TPO” value with CD34^+CD38^− cells (setting [2]) is “∘”. Also, in the assay with CD34^+CD38^− cells (1 μg/mL compound), the “Expansion efficiency (CD34^+CD38^− cells)” value is “A (A for expansion efficiencies of 10 or greater)”.

On to `CC(=NNC(=O)c1ccc(C(=O)NCc2ccc(CC(N)=O)cc2)s1)c1csc(-c2ccc(Br)cc2)c1O` [compound 68], for which the “Expansion efficiency (CD34^+ cells)” value in the assay on CD34^+ cells (3 μg/mL compound) is given as “A (A for expansion efficiencies of 6 or greater)”. Further, the “Comparison with TPO” value in the assay with CD34^+CD38^− cells (setting [1]) is on record as “∘”. Further, the “Expansion efficiency (CD34^+CD38^− cells)” value in the assay on CD34^+CD38^− cells (3 μg/mL compound) was “A (A for expansion efficiencies of 10 or greater)”.

Turning to `CC(=NNC(=O)c1ccc(C(=O)NCc2ccc(CC(N)=O)cc2)s1)c1csc(-c2ccc(C(F)(F)F)cc2)c1O` [compound 69], the “Expansion efficiency (CD34^+ cells)” value in the assay with CD34^+ cells (3 μg/mL compound) was “A (A for expansion efficiencies of 6 or greater)”. In addition, the “Expansion efficiency (CD34^+CD38^− cells)” value in the assay with CD34^+CD38^− cells (3 μg/mL compound) is reported as “A (A for expansion efficiencies of 10 or greater)”.

Regarding `CC(=NNC(=O)c1ccc(C(=O)NCc2ccc(CC(N)=O)cc2)s1)c1csc(-c2ccc(Cl)cc2)c1O` [compound 70], in the assay with CD34^+ cells (3 μg/mL compound), the “Expansion efficiency (CD34^+ cells)” value is “A (A for expansion efficiencies of 6 or greater)”. The “Comparison with TPO” value in the assay with CD34^+CD38^− cells (setting [1]) is listed as “∘”. Besides, in the assay with CD34^+CD38^− cells (3 μg/mL compound), the “Expansion efficiency (CD34^+CD38^− cells)” value is “A (A for expansion efficiencies of 10 or greater)”.

Regarding `CC(=NNC(=O)c1ccc(C(=O)NCc2ccc(CC(N)=O)cc2)s1)c1csc(-c2ccc(OC(F)(F)F)cc2)c1O` [compound 71], the “Expansion efficiency (CD34^+ cells)” value in the assay with CD34^+ cells (3 μg/mL compound) is listed as “A (A for expansion efficiencies of 6 or greater)”. Besides, the “Expansion efficiency (CD34^+CD38^− cells)” value in the assay on CD34^+CD38^− cells (3 μg/mL compound) is listed as “A (A for expansion efficiencies of 10 or greater)”.

On to `COc1ccc(-c2scc(C(C)=NNC(=O)c3ccc(C(=O)NCc4ccc(CC(N)=O)cc4)s3)c2O)cc1` [compound 72], for which, in the assay on CD34^+ cells (3 μg/mL compound), the “Expansion efficiency (CD34^+ cells)” value was “B (B for expansion efficiencies of at least 4 and less than 6)”. In the assay on CD34^+CD38^− cells (3 μg/mL compound), the “Expansion efficiency (CD34^+CD38^− cells)” value is “B (B for expansion efficiencies of at least 5 and less than 10)”.
